Measurements as given in patent US4536396A, “Synergistic sweetening compositions” (Pfizer Inc., priority 1983, dated 1985).

Tests used:
[1] = Sensory analysis of relative sweetness intensity and taste quality of aqueous solutions compared with sucrose solutions
Description: The relative sweetness intensity and quality of CP-54,802, AS-K and mixtures of CP-54,802 and AS-K were determined by sensory analysis. These determinations were carried out in a facility designed for controlled tasting, flavor research and evaluation of food additives, including a separate preparation room and individual tasting booths with complete air-conditioning, controlled lighting, running water and a sink for expectoration.
Aqueous solutions of sucrose were prepared at concentrations (w/w) of 2, 3, 4, 5, 6, 7, 8, 9, 10, 11 and 12% along with a sample of one of the test compounds at the levels specified in the test experiments. A beaker containing a solution of the test compound identified only by a coded digit was submitted to the taster by a co-worker along with a beaker containing the above sucrose solutions. The sweetness intensity of the test compound was compared with one or more of the sucrose control solutions to determine whether that particular sucrose reference sample was of lesser, greater or equal sweetness. The taste quality of the test sample was then characterized by comparison with the sucrose solution. In some instances a reference aqueous solution containing either CP-54,802 and/or AS-K alone was also used to characterize the taste quality of mixture of CP-54,802 and AS-K.
After selecting the particular sucrose solution equal in sweetness to the AS-K solution, subsequent test comparisons of the AS-K and sucrose solution at closest sweetness intensity were performed to recheck the intensity value and to characterize the taste quality of the AS-K. By this means, the following results were obtained: […]

[2] = cited from earlier work
[3] = Taste quality and sweetening potency in typically prepared edible products (Table III)
Description: The ultimate compositions for edible use, or for use as oral hygienic products or as formulated medicinal agents, are readily prepared, using methods generally known in the food technology and pharmaceutical arts. The taste quality of such typically prepared edible products prepared with sucrose, with AS-K alone and with one of present combinations as sweetening agent are summarized in Table III.

[4] = at 2% sucrose equivalent in water
[5] = at 3% sucrose equivalent in water
[6] = at 4% sucrose equivalent in water
[7] = at 5% sucrose equivalent in water
[8] = at 6% sucrose equivalent in water
[9] = at 7% sucrose equivalent in water, AS-K values above 6% only approximate
[10] = at 8% sucrose equivalent in water, AS-K values above 6% only approximate
[11] = at 9% sucrose equivalent in water, AS-K values above 6% only approximate
[12] = at 10% sucrose equivalent in water, AS-K values above 6% only approximate
[13] = compared to 10% sucrose in water
[14] = equal in sweetness to 2% sucrose (w/w) in water
[15] = equal in sweetness to 3% sucrose (w/w) in water
[16] = equal in sweetness to 4% sucrose (w/w) in water
[17] = equal in sweetness to 5% sucrose (w/w) in water
[18] = equal in sweetness to 6% sucrose (w/w) in water
[19] = equal in sweetness to 7% sucrose (w/w) in water
[20] = equal in sweetness to 8% sucrose (w/w) in water
[21] = equal in sweetness to 9% sucrose (w/w) in water
[22] = equal in sweetness to 10% sucrose (w/w) in water

SMILES	Potency Sucrose = 1 [1, 4]	Potency Sucrose = 1 [1, 5]	Potency Sucrose = 1 [1, 6]	Potency Sucrose = 1 [1, 7]	Potency Sucrose = 1 [1, 8]	Potency Sucrose = 1 [1, 9]	Potency Sucrose = 1 [1, 10]	Potency Sucrose = 1 [1, 11]	Potency Sucrose = 1 [1, 12]	Equivalent Concentration % [1, 14]	Equivalent Concentration % [1, 15]	Equivalent Concentration % [1, 16]	Equivalent Concentration % [1, 17]	Equivalent Concentration % [1, 18]	Equivalent Concentration % [1, 19]	Equivalent Concentration % [1, 20]	Equivalent Concentration % [1, 21]	Equivalent Concentration % [1, 22]	Potency of Sweetening Agent in Product ([3]; 7-Up-type carbonated drink)	Potency of Sweetening Agent in Product ([3]; Cola carbonated drink)	other results
CC1=CC(=O)NS(=O)(=O)O1 [AS-K, 6-Methyl-1,2,3-oxathiazin-4(3H)-one-2,2-dioxide]	250 Sucrose = 1	200 Sucrose = 1	160 Sucrose = 1	110 Sucrose = 1	90 Sucrose = 1	90 Sucrose = 1	90 Sucrose = 1	85 Sucrose = 1	80 Sucrose = 1	0.0080%	0.0150%	0.0250%	0.0455%	0.0667%	0.0777%	0.0889%	0.1059%	0.1250%	< 90	90	Relative sweetness ([1]; at concentrations equivalent to 6-10% sucrose): ≤ 90; Concentration (g/100 ml) ≡ 10% Sucrose [1, 13]: 0.1250 g/100 ml; Potency of Mixture [1, 13]: 80; Sweetness relative to cane sugar ([2]; in water at concentrations equivalent in sweetness to a 4% solution of cane sugar): 130; Concentration equivalent to 4% cane sugar ([2]; in water): 0.031%; Potency of Sweetening Agent in Product ([3]; Lemonade drink): < 90; Potency of Sweetening Agent in Product ([3]; Orange gelatin dessert): < 90; Potency of Sweetening Agent in Product ([3]; Peppermint hard candy): < 90; Potency of Sweetening Agent in Product ([3]; Strawberry drink): < 90; Potency of Sweetening Agent in Product ([3]; Vanilla cakes): 90; Potency of Sweetening Agent in Product ([3]; Vanilla frozen dessert): < 90; Potency of Sweetening Agent in Product ([3]; Vanilla pudding): < 90
OC[C@H]1O[C@@](CO)(O[C@H]2O[C@H](CO)[C@@H](O)[C@H](O)[C@H]2O)[C@@H](O)[C@@H]1O [Sucrose, reference compound]	–	–	–	–	–	–	–	–	–	–	–	–	–	–	–	–	–	–	1	1	Potency of Sweetening Agent in Product ([3]; Lemonade drink): 1; Potency of Sweetening Agent in Product ([3]; Orange gelatin dessert): 1; Potency of Sweetening Agent in Product ([3]; Peppermint hard candy): 1; Potency of Sweetening Agent in Product ([3]; Strawberry drink): 1; Potency of Sweetening Agent in Product ([3]; Vanilla cakes): 1; Potency of Sweetening Agent in Product ([3]; Vanilla frozen dessert): 1; Potency of Sweetening Agent in Product ([3]; Vanilla pudding): 1
C[C@@H](NC(=O)[C@@H](N)CC(=O)O)C(=O)NC1C(C)(C)SC1(C)C [CP-54,802, 3-(L-Aspartyl-D-alaninamido)-2,2,4,4-tetramethylthietane]	2,900 Sucrose = 1	2,850 Sucrose = 1	2,800 Sucrose = 1	2,500 Sucrose = 1	2,300 Sucrose = 1	2,250 Sucrose = 1	2,112 Sucrose = 1	2,075 Sucrose = 1	2,000 Sucrose = 1	0.00069%	0.00105%	0.00143%	0.002%	0.0026%	0.0031%	0.00378%	0.0043%	0.005%	–	–	–
